# Assay results: patent publication US12434040B2, “Applicator for a microneedle array patch delivery system” (VAXESS TECHNOLOGIES, INC., priority 2023, dated 2025)
# How the values were obtained:
# [1] = rat, in vivo, 220 ug
# Procedure: (§1) The first study was a pilot study evaluating the impact of array size and dose per needle on the PK profile. Approximately 324 μg of GLP-1 was formulated in Form 1 and delivered with a 60 vs a 90-microneedle array (FIG. 25A). […] The second study was a pilot study evaluating˜5 μg per needle formulated in either Form 1 or Form 2 each delivered with a 61-microneedle array.
# (§2) A follow up PK study, with more extensive sampling, particularly in the first 48 hours, was carried out next.
# (§3) A dose matched sample formulated in Tris buffer delivered by the subcutaneous route was included as a comparator. MAP dose loading and delivery was confirmed by RP-HPLC (FIG. 26A, top panels). […] The inset in FIG. 26A plots the total area under the curve (AUC) which is a measure of the total exposure to drug product for each animal, for each treatment group and serves as an estimate of bioavailability.
# (§4) Male Sprague-Dawley rats (n≥5) of approximately 350-450 g and male Göttingen mini-pigs of 25-30 kg (n≥3) are used in pharmacokinetic studies. […] Individual animal plasma concentration-time values are used to calculate plasma concentration-time data for each delivery route and analyzed by noncompartmental pharmacokinetics using standard PK software.
# [2] = Rat PK studies (MAP vs subcutaneous), with body weights and application site observations; settings: rat follow up study; target dose 220 μg
# Procedure: as §1, §2, §3, §4
substance,measurement,setting,value
semaglutide [SQ delivered GLP-1],AUC (bioavailability),[1],some variation in the AUC
same,weight loss by Day 4,[2],10%
